Laboratory results from patent US5827837A, “Polyanion anti-inflammatory agents” (priority 1996, dated 1998).
“Also recorded” adds a separate entry of the source. Read-outs that look alike come from different tables or passages of the source.

Experiments:
[1] = molecular target: T1, L-selectin-lg fusion protein (Homo sapiens, UniProt P14151); assay: Competition ELISA: binding of L-selectin-Ig to immobilized BSA-sLe^x
T1 construct: Each selectin-lg contains the lectin domain, epidermal growth factor domain, and one (L-selectin-lg), two (P-selectin-lg) or six (E-selectin-lg) complement regulatory repeats; made in house
Text: Selectin-lg fusion proteins are recombinant chimeric molecules containing extracellular regions of selectins coupled to the hinge, CH2, and CH3 regions of human IgG1 (Aruffo, A., et al., Cell, 67:35, 1991; Walz, G., et al., Science, 250:1132, 1990). Each selectin-lg contains the lectin domain, epidermal growth factor domain, and one (L-selectin-lg), two (P-selectin-lg) or six (E-selectin-lg) complement regulatory repeats of the parent molecules. DNAs encoding selectin-Ig inserted in pCDM7 allowed transient expression of recombinant proteins in COS cells as previously described (Seed, B., et al., Proc. Natl. Acad. Sci., U.S.A., 84:3365, 1987; Aruffo, A., Current Protocols In Molecular Biology, eds. Ausubel, F. M., et al, 16:13.1, Greene Publishing Associates and Wiley-lnterscience, New York, N.Y., 1992). These DNAs were also ligated into pNUT (Palmiter, R. D., et al, Cell, 50:435, 1987) for amplification and stable expression in BHK cells. The fusion proteins were affinity purified from culture media using protein A (Pierce Chemical Company, Rockford, Ill.) or protein G (Pharmacia, Piscataway, N.J.) Sepharose, as previously described (Aruffo, A., et al., Cell, 67:35, 1991; Aruffo, A., Current Protocols In Molecular Biology, eds. Ausubel, F. M., et al, supra, 1992). Competition binding ELISAs using P- and E-selectin-lg were performed essentially as described (Nelson, R. M., et al., J. Clin. […] Selectin concentrations were from 10 to 30 nM. […] To increase L-selectin binding, an assay similar to that previously described was used (Foxall, C., et al., J. Cell Biol., 117:895, 1992), in which the L-selectin-lg (10-20 nM) was allowed to form aggregates with HRP-conjugated anti-lg antibody for 30 minutes prior to addition of inositols and incubation on the BSA-sLe^x -coated plate. IC50 values were calculated by fitting binding data to the equation: fraction of maximal binding=IC50 […] using nonlinear least squares analysis software (Origin, Microcal Inc, Northampton, Mass.). InsP6 (dodecasodium salt), InsS6 (hexapotassium salt), myo-inositol 1 monophosphate (cyclohexylammonium salt), and myo-inositol were from Sigma Chemical Company (St. Louis, Mo.). Stock solutions were prepared daily in 0.9% NaCl and sterilized by 0.22 μm filtration. InsP6 solutions were adjusted at pH 7.4 with HCl.
(§1) L-, P-, or E-selectin-lg fusion proteins were incubated for 2-3 hours on microtiter plates coated with the neoglycoprotein BSA-sLe^x, the plates washed, and bound selectin-lg was detected using a peroxidase-conjugated antibody directed against the lg portion and a chromogenic substrate. To determine blocking activity, solution-phase lnsP6 (.circle-solid.), InsS6 (.largecircle.), or inositol (.box-solid.) at the indicated concentrations were added to the solutions containing selectin-Ig fusion proteins prior to transfer to microtiter plates (competition ELISA).

inflammation = settings: rodent model; cited from earlier work
P-selectin [2] = settings: cited from earlier work
[3] = molecular target: T2, P-selectin-lg fusion protein (Homo sapiens, UniProt P16109); assay: Competition ELISA: binding of P-selectin-Ig to immobilized BSA-sLe^x
T2 construct: Each selectin-lg contains the lectin domain, epidermal growth factor domain, and one (L-selectin-lg), two (P-selectin-lg) or six (E-selectin-lg) complement regulatory repeats; made in house
Text: (§2) Selectin-lg fusion proteins are recombinant chimeric molecules containing extracellular regions of selectins coupled to the hinge, CH2, and CH3 regions of human IgG1 (Aruffo, A., et al., Cell, 67:35, 1991; Walz, G., et al., Science, 250:1132, 1990). Each selectin-lg contains the lectin domain, epidermal growth factor domain, and one (L-selectin-lg), two (P-selectin-lg) or six (E-selectin-lg) complement regulatory repeats of the parent molecules. DNAs encoding selectin-Ig inserted in pCDM7 allowed transient expression of recombinant proteins in COS cells as previously described (Seed, B., et al., Proc. Natl. Acad. Sci., U.S.A., 84:3365, 1987; Aruffo, A., Current Protocols In Molecular Biology, eds. Ausubel, F. M., et al, 16:13.1, Greene Publishing Associates and Wiley-lnterscience, New York, N.Y., 1992). These DNAs were also ligated into pNUT (Palmiter, R. D., et al, Cell, 50:435, 1987) for amplification and stable expression in BHK cells. The fusion proteins were affinity purified from culture media using protein A (Pierce Chemical Company, Rockford, Ill.) or protein G (Pharmacia, Piscataway, N.J.) Sepharose, as previously described (Aruffo, A., et al., Cell, 67:35, 1991; Aruffo, A., Current Protocols In Molecular Biology, eds. Ausubel, F. M., et al, supra, 1992). Competition binding ELISAs using P- and E-selectin-lg were performed essentially as described (Nelson, R. M., et al., J. Clin. Invest., 91:1157, 1993), except that the assay buffer was 20 mM HEPES pH 7.4, 150 mM NaCl, 2 mM CaCl2, and 0.25 mM thimerosal, containing 10 mg/ml BSA, protease-free, (Miles Inc., Kankakee, Ill.). Selectin concentrations were from 10 to 30 nM. […] To increase L-selectin binding, an assay similar to that previously described was used (Foxall, C., et al., J. Cell Biol., 117:895, 1992), in which the L-selectin-lg (10-20 nM) was allowed to form aggregates with HRP-conjugated anti-lg antibody for 30 minutes prior to addition of inositols and incubation on the BSA-sLe^x -coated plate. IC50 values were calculated by fitting binding data to the equation: fraction of maximal binding=IC50 […] using nonlinear least squares analysis software (Origin, Microcal Inc, Northampton, Mass.). InsP6 (dodecasodium salt), InsS6 (hexapotassium salt), myo-inositol 1 monophosphate (cyclohexylammonium salt), and myo-inositol were from Sigma Chemical Company (St. Louis, Mo.). Stock solutions were prepared daily in 0.9% NaCl and sterilized by 0.22 μm filtration. InsP6 solutions were adjusted at pH 7.4 with HCl.
as §1

L-selectin [4] = settings: cited from earlier work
[5] = molecular target: T3, E-selectin-lg fusion protein (Homo sapiens, UniProt P16581); assay: Competition ELISA: binding of E-selectin-Ig to immobilized BSA-sLe^x
T3 construct: Each selectin-lg contains the lectin domain, epidermal growth factor domain, and one (L-selectin-lg), two (P-selectin-lg) or six (E-selectin-lg) complement regulatory repeats; made in house
Text: as §2, §1

hemoglobin = settings: avian erythrocytes; cited from earlier work
[6] = test system: PMN within the peritoneal cavity; assay: Thioglycollate-induced peritoneal inflammation, PMN accumulation; assay type: in vivo, mice (Balb/c); settings: mice, 80 μmol/kg in two i.v. injections, 2 experiments
P-selectin [7] = settings: cited from earlier work; remark: listed apart in the source
L-selectin [8] = settings: cited from earlier work; remark: listed apart in the source
[9] = chelator concentration above 1 mM
[10] = up to a concentration of 1 mM in assay buffer

Compound: O=P(O)(O)O[C@@H]1[C@@H](O)[C@@H](O)[C@@H](OP(=O)(O)O)[C@H](OP(=O)(O)O)[C@H]1O (relative stereo) [D, L-isomer mixture of Ins1,4,6 P3]
- IC50 ([1]; preliminary competition ELISA, single experiment, read-out: IC50, L-selectin-Ig): 230 ± 90 µM

Compound: O=P(O)(O)O[C@@H]1[C@H](OP(=O)(O)O)[C@H](O)[C@@H](O)[C@H](O)[C@H]1OP(=O)(O)O [1,2,6-triphosphate (IP3), 1,2,6-triphosphate]
- inhibition of inflammation (inflammation): modestly inhibit inflammation

Compound: O=C(O)CN(CCN(CC(=O)O)CC(=O)O)CC(=O)O [EDTA, reference compound]
- inhibition profile, L-selectin [1, 9]: same inhibition profile on all three selectins
- blocking of L-selectin with chelator [1, 10]: no blocking of any selectin up to a concentration of 1 mM
- effect of calcium chelator on P-selectin interaction with sulfatides (P-selectin [2]): largely unaffected
- inhibition profile, P-selectin [3, 9]: same inhibition profile on all three selectins
- blocking of P-selectin with chelator [3, 10]: no blocking of any selectin up to a concentration of 1 mM
- effect of calcium chelator on L-selectin interaction with sulfatides (L-selectin [4]): largely unaffected
- inhibition profile, E-selectin [5, 9]: same inhibition profile on all three selectins
- blocking of E-selectin with chelator [5, 10]: no blocking of any selectin up to a concentration of 1 mM

Compound: O=P(O)(O)OC1[C@H](O)[C@H](O)C(O)[C@H](O)[C@H]1O (some centres unmarked) [InsP1, myo-inositol 1 monophosphate, reference compound]
- activity against L-selectin ([1]; selected assays, in vitro): no activity
- activity against P-selectin ([3]; selected assays, in vitro): no activity

Compound: O=P(O)(O)O[C@@H]1[C@@H](OP(=O)(O)O)[C@H](OP(=O)(O)O)[C@H](O)[C@H](OP(=O)(O)O)[C@H]1OP(=O)(O)O [InsP5, inositol pentakisphosphate]
- IC50 ([1]; selected assays, in vitro, read-out: IC50, blocking activity against L-selectin): 38 ± 17 µM
- effect on hemoglobin affinity for oxygen (hemoglobin): increasing its affinity for oxygen
- reduced peritoneal influx of PMN (inhibition) [6]: 48±6%
- IC50 ([3]; selected assays, in vitro, read-out: IC50, blocking activity against P-selectin): 940 ± 130 µM

Compound: O=P(O)(O)O[C@@H]1[C@@H](O)[C@H](OP(=O)(O)O)[C@@H](OP(=O)(O)O)[C@H](O)[C@@H]1O [L-isomer of Ins1,4,5 P3]
- inhibition of L-selectin-Ig binding ([1]; preliminary competition ELISA, up to 700 μM): no inhibition at concentrations up to 700 μM

Compound: CC(=O)N[C@H]1[C@H]([C@H](O)[C@H](O)CO)O[C@@](O[C@H]2[C@@H](O)[C@@H](CO)O[C@@H](O[C@H]3[C@H](O[C@@H]4O[C@@H](C)[C@@H](O)[C@@H](O)[C@@H]4O)[C@@H](NC(C)=O)C(O)O[C@@H]3CO)[C@@H]2O)(C(=O)O)C[C@@H]1O (some centres unmarked) [sLe^x, Neu5Acα2-3Galβ1-4(Fucα1-3)GIcNAc, reference compound]
- blocking of L-selectin-Ig binding ([1]; BSA-sLe^x competition ELISA): failed to block L-selectin binding at concentrations up to 1 mM
- IC50 ([5]; BSA-sLe^x competition ELISA, solution-phase sLe^x): 510 ± 60 µM

Compound: fucoidan
- P-selectin interaction / dependent adhesion (P-selectin [7]): interact with both P- and L-selectin
- L-selectin interaction / dependent adhesion (L-selectin [8]): L-selectin adhesion can be blocked; also recorded: interact with both P- and L-selectin

Compound: heparin
- P-selectin interaction / dependent adhesion (P-selectin [7]): interact with both P- and L-selectin
- L-selectin interaction / dependent adhesion (L-selectin [8]): interact with both P- and L-selectin
